Data taken from US20230017661A1, “COMPOSITIONS AND MODULAR NANO- AND MICROPARTICLES FOR THE DELIVERY OF VARIOUS AGENTS AND USE THEREOF” (Veri Nano Inc., priority 2019, published 2023).

Assay: Encapsulation efficiency by 1H NMR analysis of nanoparticles
Type: physicochemical
Conditions: DMF internal standard, DMSO-d6, agent within the nanoparticle delivery system
Procedure: For the ^1H NMR analysis, the nanoparticle suspension was centrifuged at 3214 rcf for 30 min. The supernatant was decanted. DMF was added to the precipitate as the internal reference for ^1H NMR analysis and weighed the amount added. DMSO-d6, was added and heated to 60° C. to dissolve the sample. The ^1H NMR was performed at 60° C.

| encapsulation efficiency | Compound |
| --- | --- |
| 42.7% | CCC(=O)OC/C=C(C)/C=C/C=C(C)/C=C/C1=C(C)CCCC1(C)C [vitamin A-propionate, retinyl propionate] |
| 19% | CCCCCCCC/C=C\CCCCCCCC(=O)O [oleic acid] |
